Reference: patent publication EP1510211A1, “Pharmaceutical composition comprising N-retinyl-N-retinylidene Ethanolamine (A2E), isoforms of A2E or derivatives thereof” (Lynkeus Biotech GmbH, priority 2003, dated 2005)

How the values were obtained:
MDCK-F1 cells = experiment: Apoptosis by Cell Death ELISA Plus Kit in MDCK-F1 cells; format: cell-based, canine
Protocol: (§1) RPE, ARPE-19, and MDCK-F1 cells are exposed to both PG (0, 10, 50 µg/ml) and A2E (0, 15 or 20 µM) for 4 hrs. […] RPE, ARPE-19, and MDCK-F1 cells are exposed to both PG (0, 10, 50 µg/ml) and iso-A2E (0, 15 or 20 µM) under the influence of light for 4 hrs. Then they are washed 3 times with PBS and the apoptosis is determined by Cell Death ELISA Plus Kit (Roche, Mannheim, Germany)
(§2) As an example, the apoptotic effect of A2E on porcine primary retinal pigment epithelial cells (RPE), and the cell lines ARPE-19 and MDCK-F1 cells is analyzed. • Example 1 describes the apoptotic effect of A2E on RPE, ARPE-19, and MDCK-F1 cells. The cells are exposed to 0, 15 and 30 µM of A2E for 2, 4, 6 and 22 hrs. […] Then they are washed 3 times with PBS and the apoptosis is determined by Cell Death ELISA Plus Kit (Roche, Mannheim, Germany). • Example 3 describes the apoptotic effect of A2E on RPE, ARPE-19, and MDCK-F1 cells after application of iso-A2E and exposure in light (photo-isomerization). […] Then they are washed 3 times with PBS and the apoptosis is determined by Cell Death ELISA Plus Kit (Roche, Mannheim, Germany) (see figure 4).
(§3) RPE and ARPE-19 cells: Primary porcine retinal pigment epithelial cells were isolated as previously described. […] Detection of apoptosis: Apoptosis was detected by Cell Death ELISA Plus Kit (Roche, Mannheim, Germany). […]

[1] = test system: porcine primary retinal pigment epithelial cells (RPE); experiment: Apoptosis by Cell Death ELISA Plus Kit in primary RPE cells; format: cell-based
Protocol: as §1, §2, §3

ARPE-19 cells = experiment: Apoptosis by Cell Death ELISA Plus Kit in ARPE-19 cells; format: cell-based, human
Protocol: as §1, §2, §3

[2] = PG (0, 10, 50 µg/ml) together with A2E (0, 15 or 20 µM) for 4 hrs, Figure 3
[3] = PG (0, 10, 50 µg/ml) together with iso-A2E (0, 15 or 20 µM) under the influence of light for 4 hrs, Figure 4

L-A-Phosphatidyl-DL-Glycerol sodium [PG]
protective effect: protective effect regarding the apoptotic effect of A2E (MDCK-F1 cells; [2]) | protective effect regarding the apoptotic effect of photo-isomerization of iso-A2E (MDCK-F1 cells; [3]) | protective effect regarding the apoptotic effect of A2E [1, 2] | protective effect regarding the apoptotic effect of photo-isomerization of iso-A2E [1, 3] | protective effect regarding the apoptotic effect of A2E (ARPE-19 cells; [2]) | protective effect regarding the apoptotic effect of photo-isomerization of iso-A2E (ARPE-19 cells; [3])
